# Test results from BindingDB's records for doi:10.1016/j.bmcl.2015.01.024 (Arena Pharmaceuticals, 2015).
# pIC50: −log10 of the molar value.
# Assay: Agonist activity at human IP receptor in human platelets assessed as inhibition of ADP-induced platelet aggregation
row,SMILES,pIC50
1,COc1ccc(-c2c(-c3ccccc3)cnn(CC3CCc4c(cccc4OCC(=O)O)C3)c2=O)cc1 (centres undefined),6.48
2,O=C(O)COc1cccc2c1CCC(Cn1ncc(-c3cccc(F)c3F)c(-c3ccc(F)cc3)c1=O)C2 (centres undefined),7.21
3,O=C(O)COc1cccc2c1CC[C@@H](Cn1ncc(-c3cccc(F)c3F)c(-c3ccc(F)cc3)c1=O)C2,7.21
4,COc1cccc(-c2cnn(CC3CCc4c(cccc4OCC(=O)O)C3)c(=O)c2-c2ccccc2)c1F (centres undefined),7.19

# Further lines, results first:
row,pIC50,SMILES
1,6.72,O=C(O)COc1cccc2c1CCC(Cn1ncc(-c3cccc(F)c3)c(-c3ccccc3)c1=O)C2 (centres undefined)
2,6.64,O=C(O)COc1cccc2c1CCC(Cn1ncc(-c3ccccc3)c(-c3ccc(F)cc3)c1=O)C2 (centres undefined)
3,6.66,O=C(O)COc1cccc2c1CCC(Cn1ncc(-c3ccccc3F)c(-c3ccccc3)c1=O)C2 (centres undefined)
4,6.49,O=C(O)COc1cccc2c1CCC(Cn1ncc(-c3ccccc3)c(-c3ccccc3)c1=O)C2 (centres undefined)
5,7.06,O=C(O)COc1cccc2c1CCC(Cn1ncc(-c3cccc(F)c3F)c(-c3ccccc3)c1=O)C2 (centres undefined)
